According to ChEMBL document CHEMBL1138245, “Discovery of N1-(6-chloroimidazo[2,1-b][1,3]thiazole-5-sulfonyl)tryptamine as a potent, selective, and orally active 5-HT(6) receptor agonist” (J Med Chem, 2007):

Tests used:
[1] = molecular target: T1, 5-hydroxytryptamine receptor 6 (Homo sapiens, UniProt P50406); assay: Displacement of [3H]LSD from human 5HT6 receptor expressed in HeLa cells; format: cell-based
[2] = molecular target: T1, 5-hydroxytryptamine receptor 6; assay: Agonist activity at human 5HT6 receptor expressed in HeLa cells assessed as cAMP production; format: functional, cell-based

T1 sequence (P50406 whole entry): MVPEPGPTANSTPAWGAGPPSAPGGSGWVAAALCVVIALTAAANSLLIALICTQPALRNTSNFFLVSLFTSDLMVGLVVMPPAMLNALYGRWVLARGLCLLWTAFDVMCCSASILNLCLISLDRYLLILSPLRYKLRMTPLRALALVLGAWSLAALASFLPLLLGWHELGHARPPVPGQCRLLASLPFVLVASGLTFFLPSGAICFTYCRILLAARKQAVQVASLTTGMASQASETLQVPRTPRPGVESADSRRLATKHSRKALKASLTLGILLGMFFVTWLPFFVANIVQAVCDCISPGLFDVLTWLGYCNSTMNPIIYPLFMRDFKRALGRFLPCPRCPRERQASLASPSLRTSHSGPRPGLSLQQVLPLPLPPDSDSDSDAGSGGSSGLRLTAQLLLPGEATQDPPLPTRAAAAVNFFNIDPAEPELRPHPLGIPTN

| SMILES | Ki [1] | EC50 [2] | Emax [2] |
| --- | --- | --- | --- |
| NCCc1cn(S(=O)(=O)c2ccc(Cl)c(Cl)c2)c2ccccc12 | 30 nM | – | – |
| NCCc1cn(S(=O)(=O)c2ccccc2)c2ccccc12 | 10 nM | 73 nM | 92% |
